The values below come from ChEMBL document CHEMBL1138198, “Carbonic anhydrase inhibitors: DNA cloning and inhibition studies of the alpha-carbonic anhydrase from Helicobacter pylori, a new target for developing sulfonamide and sulfamate gastric drugs” (J Med Chem, 2006).

The target of one test is T1, Carbonic anhydrase (Helicobacter pylori (strain ATCC 700392 / 26695) (Campylobacterpylori), UniProt O24855).
T1 sequence (O24855 whole entry): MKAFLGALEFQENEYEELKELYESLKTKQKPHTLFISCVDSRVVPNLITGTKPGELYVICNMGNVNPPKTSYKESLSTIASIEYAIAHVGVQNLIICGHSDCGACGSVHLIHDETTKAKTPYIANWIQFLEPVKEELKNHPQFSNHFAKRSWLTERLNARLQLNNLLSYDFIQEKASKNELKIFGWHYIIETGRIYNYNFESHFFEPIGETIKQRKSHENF

The next test deals with Carbonic anhydrase 1 (Homo sapiens, UniProt P00915).
Chain of Carbonic anhydrase 1 (P00915 whole entry): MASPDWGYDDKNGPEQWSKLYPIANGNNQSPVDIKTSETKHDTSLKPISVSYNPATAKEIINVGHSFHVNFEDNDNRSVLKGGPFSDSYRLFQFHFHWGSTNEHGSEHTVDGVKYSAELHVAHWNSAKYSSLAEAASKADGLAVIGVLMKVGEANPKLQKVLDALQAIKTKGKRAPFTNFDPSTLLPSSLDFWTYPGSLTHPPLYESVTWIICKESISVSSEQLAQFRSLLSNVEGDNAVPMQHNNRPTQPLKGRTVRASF

Description for Carbonic anhydrase 1: Inhibition of human recombinant carbonic anhydrase 1 by stopped-flow CO2 hydrase assay

A word on the Ki: it is the equilibrium dissociation constant of an inhibitor or competing ligand from its target. With `CC(C)(C)c1ccc(C(=O)Nc2cccc(S(N)(=O)=O)c2)cc1`, the Ki on Carbonic anhydrase came out at 316 nM; at Carbonic anhydrase 1, 10800 nM.
Turning to `CC(C)(C)c1ccc(S(=O)(=O)Nc2ccc(S(N)(=O)=O)cc2)cc1`, the values for the inhibition constant (Ki) at Carbonic anhydrase and on Carbonic anhydrase 1 were 60 nM and 13000 nM, respectively.
`CC(C)(C)c1ccc(S(=O)(=O)Nc2ccccc2S(N)(=O)=O)cc1`: the Ki on Carbonic anhydrase came to 640 nM; on Carbonic anhydrase 1 it was 14700 nM.
Turning to `CC(C)(C)c1ccc(S(=O)(=O)CCNc2ccc(S(N)(=O)=O)cc2)cc1`, the Ki at Carbonic anhydrase came out at 27 nM; on Carbonic anhydrase 1 it was 12000 nM.
Regarding `CC(C)(C)c1ccc(C(=O)NCCc2ccc(S(N)(=O)=O)cc2)cc1`, the figures for the Ki at Carbonic anhydrase and at Carbonic anhydrase 1 were 51 nM and 12400 nM, respectively.
As for `CC(C)(C)c1ccc(C(=O)Nc2ccccc2S(N)(=O)=O)cc1`, the Ki at Carbonic anhydrase is 539 nM; on Carbonic anhydrase 1, 12300 nM.
In the case of `CC(C)(C)c1ccc(S(=O)(=O)CNc2ccc(S(N)(=O)=O)cc2)cc1`, the results for the Ki on Carbonic anhydrase and on Carbonic anhydrase 1 were 31 nM and 12100 nM, respectively.
For `CC(C)(C)c1ccc(S(=O)(=O)Nc2cccc(S(N)(=O)=O)c2)cc1` the same measures were 318 nM and 9620 nM.
For `CC(C)(C)c1ccc(S(=O)(=O)Nc2nnc(S(N)(=O)=O)s2)cc1` the same measures were 12 nM and 338 nM.
Turning to `CC(C)(C)c1ccc(C(=O)Nc2nnc(S(N)(=O)=O)s2)cc1`, the Ki on Carbonic anhydrase came to 13 nM; at Carbonic anhydrase 1 it was 541 nM.
As for `Nc1ccc(S(=O)(=O)NCc2ccc(S(N)(=O)=O)cc2)cc1`, the Ki at Carbonic anhydrase was found to be 131 nM.
At Carbonic anhydrase, `Nc1ccc(S(N)(=O)=O)cc1I` showed a Ki of 510 nM. This Ki is about 3.9-fold higher than that of the compound before.
For `Nc1ccc(S(=O)(=O)Nc2nnc(S(N)(=O)=O)s2)cc1`, at Carbonic anhydrase, the Ki worked out at 268 nM.
Regarding `CC(C)(C)c1ccc(C(=O)NCc2ccc(S(N)(=O)=O)cc2)cc1`, the results for the Ki at Carbonic anhydrase and on Carbonic anhydrase 1 were 62 nM and 13300 nM, respectively.
As for `CC(C)(C)c1ccc(C(=O)Nc2ccc(S(N)(=O)=O)cc2)cc1`, the inhibitory constant (Ki) was determined as 79 nM on Carbonic anhydrase and 14200 nM at Carbonic anhydrase 1.
`Nc1nccc(Nc2ccc(S(N)(=O)=O)cc2)n1` yielded a Ki at Carbonic anhydrase of 84 nM.
In turn, `Nc1ccc(S(N)(=O)=O)cc1Br` showed a Ki on Carbonic anhydrase of 452 nM. This Ki lies about 5.4-fold higher than the previous one.
For the compound `Cn1nc(S(N)(=O)=O)sc1=N`, the Ki at Carbonic anhydrase turned out to be 549 nM. The Ki values of the last two compounds are within 1.5-fold of each other.
Regarding `Nc1ccc(S(N)(=O)=O)cc1F`, the Ki on Carbonic anhydrase worked out at 1230 nM.
As to `Nc1ccc(S(N)(=O)=O)cc1Cl`, the affinity at Carbonic anhydrase, expressed as Ki, was 378 nM.
In turn, `Nc1ccc(S(=O)(=O)NCCc2ccc(S(N)(=O)=O)cc2)cc1` had a Ki on Carbonic anhydrase of 114 nM.
The compound `NS(=O)(=O)c1ccc(S(=O)(=O)Nc2cccc3c(Cl)c[nH]c23)cc1` returned a Ki at Carbonic anhydrase of 413 nM.
`CCN[C@H]1CN(CCCOC)S(=O)(=O)c2sc(S(N)(=O)=O)cc21` [BRINZOLAMIDE] registered a Ki on Carbonic anhydrase of 210 nM.
With `NS(=O)(=O)c1ccc(C(=O)O)cc1` [CARZENIDE], the Ki at Carbonic anhydrase amounted to 1050 nM.
`NCc1ccc(S(N)(=O)=O)cc1` [MAFENIDE] came in with a Ki on Carbonic anhydrase of 873 nM.
`Cc1ccc(S(N)(=O)=O)cc1` [P-TOLUENESULFONAMIDE] registered a Ki at Carbonic anhydrase of 450 nM.
